One assay relates to ET1. Briefly: ET1 secretion by non-stimulated 1° MK (ELISA). It is filed as cell-based, mouse. On the technique in general: ELISA stands for enzyme-linked immunosorbent assay.
The nature of assay [1]: UVB-induced nocifensive behavior after topical GSK205 (Hargreaves' test, von Frey hair). It is filed as in vivo, mouse. On the procedure:
Behavioral tests were performed to evaluate the decrease in withdrawal thresholds in response to mechanical von Frey hair or thermal stimuli applied to hind paws. […]. These withdrawal thresholds were ascertained before and after UV exposure. Mice were exposed using a Bio Rad Gel Doc 2000 UV transilluminator (302 nm) for 5 minutes with an exposure of 600 mJ/cm^2, 3-5 days after the last application of tamoxifen/oil.
GSK205 topical treatment: A viscous solution of 68% EtOH/5% glycerol plus 1 mM or 5 mM GSK205 (none for control) was applied to hindpaws by rubbing in 20 μL, applied at time-points 1 hour and again 10 min before UV exposure.
Behavioral tests were performed to evaluate the decrease in withdrawal thresholds in response to mechanical or thermal stimuli applied to hind paws. These withdrawal thresholds were ascertained before and after UVB exposure. Mice were confined by plexi-glass enclosures on top of 25×26 cm Bio Rad Gel Doc 2000 UV transilluminator (302 nm), and otherwise allowed to openly explore this environment. UV-exposure lasted for 5 minutes with an exposure of 600 mJ/cm^2.
Hindpaw mechanical withdrawal thresholds were determined by the automated von Frey hair method, using a 0.5 mm diameter stainless steel filament, part of an automated plantar touch stimulator (Ugo Basile, Modena, Italy). Relevant detail included pre-test acclimatization in a quiet room for 30 min, conducting the test at the same time of day and blinded observers. The stimulus was delivered to the hindpaw, automatically discontinued upon withdrawal, and its intensity recorded automatically. 6-8 trials per animal were conducted, with equal exposure of both hindpaws, leading to an average withdrawal threshold. Results are reported as […], which was calculated by subtracting post-treatment from pre-treatment measurements, expressed as % or relative to 1.0.
Hindpaw thermal (hot) withdrawal thresholds were determined by the well-established Hargreaves' method, using an infra-red thermal stimulation device that delivers the stimulus from underneath the hindpaw combined with automatic shut-off upon withdrawal (Ugo Basile). Stimulation and measurements were conducted as described for von Frey hair testing. A cutoff of 20 sec was set to prevent tissue damage.

The target of another assay is T1, human TRPV2 (Homo sapiens, UniProt Q9Y5S1).
T1 construct: expressed in transfected cells; host or cells: N2a cells
T1 sequence (Q9Y5S1 1-764): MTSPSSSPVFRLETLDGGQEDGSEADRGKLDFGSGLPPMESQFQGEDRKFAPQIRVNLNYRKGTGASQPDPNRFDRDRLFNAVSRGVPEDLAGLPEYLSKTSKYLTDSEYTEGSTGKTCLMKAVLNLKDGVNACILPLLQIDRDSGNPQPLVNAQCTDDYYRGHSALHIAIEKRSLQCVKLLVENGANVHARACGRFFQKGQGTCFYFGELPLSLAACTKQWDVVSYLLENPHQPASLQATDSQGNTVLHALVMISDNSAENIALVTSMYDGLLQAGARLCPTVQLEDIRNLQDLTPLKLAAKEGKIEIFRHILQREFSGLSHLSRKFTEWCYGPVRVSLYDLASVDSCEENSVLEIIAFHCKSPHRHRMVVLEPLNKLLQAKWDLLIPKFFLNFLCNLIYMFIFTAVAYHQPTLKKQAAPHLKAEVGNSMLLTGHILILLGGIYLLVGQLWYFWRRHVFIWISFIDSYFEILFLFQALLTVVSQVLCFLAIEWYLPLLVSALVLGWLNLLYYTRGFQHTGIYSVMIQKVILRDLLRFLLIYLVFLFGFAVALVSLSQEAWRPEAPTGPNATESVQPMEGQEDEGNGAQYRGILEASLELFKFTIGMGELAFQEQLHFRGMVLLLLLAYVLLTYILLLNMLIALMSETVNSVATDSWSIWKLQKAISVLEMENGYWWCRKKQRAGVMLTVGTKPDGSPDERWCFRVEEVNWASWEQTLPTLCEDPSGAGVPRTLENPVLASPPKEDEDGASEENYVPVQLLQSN
Kind of assay: Ca2+ signal in N2a cells transfected with human TRPV2. It is filed as cell-based. Conditions: stimulation with hypotonicity (260 mosmol/L). On the procedure: Compounds were tested for their effect on TRPV1, TRPV2, and TRPV3. Methods were similar to those described in Example 15. Briefly, N2a cells were transfected with human TRPV1, TRPV2, or TRPV3. eGFP-transfection was used as control. For specific stimulation of TRPV1, 5 μM capsaicin was used. For stimulation of TRPV2, hypotonicity (260 mosmol/L) was used, based on previous reports of TRPV2 being osmotically responsive. N2a cells were not responsive to hypotonicity, and neither were control-transfected cells. For TRPV3-expressing cells, camphor (20% of a commercially available stock solution) was used. […] Stimulation and control protocols were applied as for TRPA1-expressing N2a cells as detailed above in Example 15.

“Also recorded” adds a separate entry of the source.

Regarding `CN(CCc1ccc(Nc2nc(-c3cccnc3)cs2)cc1)Cc1ccccc1` [GSK205], in the assay with ET1, the “ET1 secretion into supernatant (relative ET1 concentration)” value was “significant down-regulation”. Also, in assay [1] (1 mM GSK205 topical, WT mice), the “delay in thermal sensitivity after UVB” value is approximately 24 h. In assay [1] (5 mM GSK205 topical, 60′ and 10′ pre-exposure, WT mice), the “thermally-evoked nocifensive behavior (Hargreaves' test) after UVB” value is on record as “sustained attenuation of thermally-evoked nocifensive behavior; also recorded: significant attenuation of thermal allodynia”. Also, in assay [1] (5 mM GSK205 topical, Trpv4−/− mice), the “nocifensive behavior after UVB in Trpv4−/− mice vs. vehicle (off-target effects)” value is listed as “did not show any inter-group differences; also recorded: lack of off-target effects”. Further, the “sensitivity to von Frey hair mechanical stimulation after UVB” value in assay [1] (topical GSK205, WT mice) is recorded as “significantly reduced sensitivity”.

In the case of `CN(CCc1ccc(Nc2nc(-c3ccccc3)cs2)cc1)Cc1ccccc1` [Compound 16-8], the “Ca2+ transience on TRPV2 stimulation” value on human TRPV2 was “not affected”.

(Values after patent publication US11014896B2, “TRPA1 and TRPV4 inhibitors and methods of using the same for organ-specific inflammation and itch” (Duke University, priority 2014, dated 2021).)
